Data: publication PMC6886403, “Structure-Based and Molecular Modeling Studies for the Discovery of Cyclic Imides as Reversible Cruzain Inhibitors With Potent Anti-Trypanosoma cruzi Activity” (Frontiers in Chemistry, 2019)

What was measured:
[1] = biological target: T1, cruzain (Trypanosoma cruzi, UniProt P25779); assay: Cruzain inhibition assay (cleavage of fluorogenic substrate Z-Phe-Arg-AMC); assay type: biochemical; settings: for inhibition at 100 µM: at 100 μM inhibitor, mean of three measurements, read-out: Percent inhibition against cruzain; for IC50: mean ± SD of three individual experiments, at least six inhibitor concentrations in triplicate, 1.5 nM cruzain, 5.0 μM Z-Phe-Arg-AMC, pH 5.5; for decrease in potency against cruzain relative to 3a: less active than 3a; for mechanism of inhibition: Lineweaver-Burk plots, eight substrate and four inhibitor concentrations
T1 construct: inferred from Ni-NTA purification of the pro-enzyme; made in house; host or cells: Escherichia coli (M15)
T1 sequence (P25779 123-337 limits assumed): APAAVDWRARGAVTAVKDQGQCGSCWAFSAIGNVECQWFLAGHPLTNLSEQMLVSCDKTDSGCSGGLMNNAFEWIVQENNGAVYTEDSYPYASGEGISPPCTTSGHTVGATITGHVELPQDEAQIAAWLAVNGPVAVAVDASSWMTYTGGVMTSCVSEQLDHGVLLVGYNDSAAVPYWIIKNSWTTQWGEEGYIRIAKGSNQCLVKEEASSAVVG
Protocol: The catalytic activity of cruzain was monitored by cleavage of the fluorogenic substrate Z-Phe-Arg-aminomethyl coumarin (Z-Phe-Arg-AMC) as previously described (Ferreira et al., [2014]). The enzyme kinetics assays were performed in 0.1 M sodium acetate buffer (pH 5.5) with 5 mM dithiothreitol (DTT) and 0.01% Triton X-100. […] The enzyme reaction was monitored for 5 min at 30°C in 96-well black flat bottom plates, and the activity was calculated based on the initial rates compared with a control (DMSO). Wavelengths of 355 nm for excitation and 460 nm for emission were used. IC50 values were independently determined by determining rate measurements for at least six inhibitor concentrations, each evaluated in triplicate. To determine the mechanism of inhibition, eight substrate concentrations and four inhibitor concentrations were used, each in triplicate. The mechanism of inhibition was determined by Lineweaver-Burk plots. SigmaPlot 10.0 (Systat Software Inc., Erkrath, Germany) was used to determine the IC50 values.

[2] = system: T. cruzi intracellular amastigotes; assay: T. cruzi intracellular amastigote assay (Tulahuen lacZ strain, CPRG readout); assay type: cell-based, Trypanosoma cruzi; settings: intracellular amastigotes; for IC50: Trypanosoma cruzi, Tulahuen strain in HFF-1 fibroblasts, 120 h, mean ± SD of two experiments, read-out: IC50 T. cruzi
Protocol: In vitro assays against T. cruzi were performed as described previously (Ferreira et al., [2014]). The T. cruzi Tulahuen strain, which expresses the E. coli β-galactosidase gene lacZ (Buckner et al., [1996]), was provided by Frederick S. Buckner (University of Washington, Seattle, WA). Stock solutions of the synthesized compounds were prepared in 100% DMSO. Epimastigotes were grown in liver infusion tryptone (LIT) supplemented with 10% fetal calf serum (FCS), penicillin and streptomycin (28°C). Metacyclogenesis from epimastigotes to trypomastigotes was induced by incubation of the epimastigotes in Grace's insect medium (Sigma-Aldrich, St. Louis, MO) supplemented with 10% FCS (28°C). HFF-1 human fibroblasts were seeded at 2 × 10^3/well (80 μL) in 96-well tissue culture plates in RPMI 1640 without phenol red supplemented with 10% FCS and incubated overnight (37°C, 5% CO2). Next, trypomastigotes were added at 1.0 × 10^4/well (20 μL), and the plates were incubated (37°C, 5% CO2). After 24 h, 3-fold serial dilutions (50 μL) of the synthesized compounds were added at concentrations ranging from 0.1 to 100 μM, and the plates were incubated (37°C, 5% CO2). Each compound concentration was evaluated in triplicate. All plates included BZ (Sigma-Aldrich) as a positive control and untreated wells (100% growth) as a negative control. After 120 h, 50 μL of chlorophenol red β-D-galactopyranoside (CPRG, Sigma-Aldrich) and IGEPAL CA-630 (Sigma-Aldrich) (0.1%) was added to each well. The absorbance was measured at 570 nm in an automated microplate reader, and the data were transferred to SigmaPlot 10.0 (Systat Software Inc.) for IC50 value calculation.

[3] = Cytotoxicity in HepG2 cells (MTS tetrazolium assay); assay type: cell-based; settings: human, HepG2 hepatocytes, mean ± SD of two independent assays
Protocol: (§1) The cytotoxicities of the compounds against HFF-1 fibroblasts and HepG2 hepatocytes were evaluated using the MTS tetrazolium assay (Promega, Madison, WI) (Barltrop et al., [1991]). HFF-1 fibroblasts were seeded at 2 × 10^3/well in 96-well culture plates in RPMI 1640 without phenol red supplemented with 10% FCS and incubated overnight (37°C, 5% CO2). HepG2 hepatocytes were seeded at 6 × 10^3/well in 96-well culture plates in DMEM (Cultilab, Campinas SP) supplemented with 10% FCS and incubated overnight (37°C, 5% CO2). The compounds were added in 3-fold serial dilutions, and the plates were incubated at 37°C with 5% CO2. Each compound concentration was evaluated in triplicate. All plates included doxorubicin (Sigma-Aldrich, St. Louis, MO) as a positive control and untreated wells (100% growth) as a negative control. After 72 h, 20 μL of MTS was added, and the plates were incubated for 4 h. The absorbance was measured at 490 nm in an automated microplate reader, and the data were transferred to SigmaPlot 10.0 (Systat Software Inc., Erkrath, Germany) for IC50 value calculation. The percent of nonviable cells was determined and compared to the negative control wells (100% growth).

[4] = Cytotoxicity in HFF-1 cells (MTS tetrazolium assay); assay type: cell-based; settings: human, HFF-1 fibroblasts, mean ± SD of two independent assays
Protocol: as §1

inhibition at 100 µM [1] [%]	Structure (SMILES)	IC50 [1] [µM]	IC50 [2] [µM]	other results
39	COc1ccc(NC(=O)COC(=O)[C@H](CC(C)C)N2C(=O)c3ccccc3C2=O)cc1Cl [10a, 2-((3-chloro-4-methoxyphenyl)amino)-2-oxoethyl (S)-2-(1,3-dioxoisoindolin-2-yl)-4-methylpentanoate]			
0	COc1ccc(NC(=O)COC(=O)CN2C(=O)C3CC=CCC3C2=O)cc1Cl (centres unmarked) [10g, 2-((3-chloro-4-methoxyphenyl)amino)-2-oxoethyl 2-(1,3-dioxo-1,3,3a,4,7,7a-hexahydro-2H-isoindol-2-yl)acetate]			activity against cruzain (in words) [1]: inactive
58	COc1ccc(NC(=O)COC(=O)[C@@H](Cc2ccc3ccccc3c2)N2C(=O)C3CC=CCC3C2=O)cc1Cl (stereo partly drawn) [10i, 2-((3-chloro-4-methoxyphenyl)amino)-2-oxoethyl (2R)-2-(1,3-dioxo-1,3,3a,4,7,7a-hexahydro-2H-isoindol-2-yl)-3-(naphthalen-2-yl)propanoate]			

Second part, the molecule before the results:

Structure (SMILES)	inhibition at 100 µM [1] [%]	IC50 [1] [µM]	IC50 [2] [µM]	other results
COc1ccc(NC(=O)COC(=O)[C@H](CC(C)C)N2C(=O)C3CC=CCC3C2=O)cc1Cl (stereo partly drawn) [3a, 2-((3-chloro-4-methoxyphenyl)amino)-2-oxoethyl (2S)-2-(1,3-dioxo-1,3,3a,4,7,7a-hexahydro-2H-isoindol-2-yl)-4-methylpentanoate]	88	2.2 ± 0.4	> 100	activity against T. cruzi (in words) [2]: not active
COc1ccc(NC(=O)COC(=O)[C@H](CC(C)C)N2C(=O)C3CC=CCC3C2=O)cc1 (stereo partly drawn) [3b, 2-((4-methoxyphenyl)amino)-2-oxoethyl (2S)-2-(1,3-dioxo-1,3,3a,4,7,7a-hexahydro-2H-isoindol-2-yl)-4-methylpentanoate]	86	13.9		
CC(C)C[C@@H](C(=O)OCC(=O)Nc1cccc(Cl)c1)N1C(=O)C2CC=CCC2C1=O (stereo partly drawn) [3c, 2-((3-chlorophenyl)amino)-2-oxoethyl (2S)-2-(1,3-dioxo-1,3,3a,4,7,7a-hexahydro-2H-isoindol-2-yl)-4-methylpentanoate]	67	40.1		
CC(C)C[C@@H](C(=O)OCC(=O)Nc1ccccc1)N1C(=O)C2CC=CCC2C1=O (stereo partly drawn) [3d, 2-oxo-2-(phenylamino)ethyl (2S)-2-(1,3-dioxo-1,3,3a,4,7,7a-hexahydro-2H-isoindol-2-yl)-4-methylpentanoate]	76	16.7 ± 1.3	> 100	decrease in potency against cruzain relative to 3a [1]: 8 fold
CC(C)C[C@@H](C(=O)OCC(=O)Nc1ccc(F)cc1)N1C(=O)C2CC=CCC2C1=O (stereo partly drawn) [3e, 2-((4-fluorophenyl)amino)-2-oxoethyl (2S)-2-(1,3-dioxo-1,3,3a,4,7,7a-hexahydro-2H-isoindol-2-yl)-4-methylpentanoate]	74	20.5 ± 1.3	> 100	
CC(C)C[C@@H](C(=O)OCC(=O)Nc1ccc(Br)cc1)N1C(=O)C2CC=CCC2C1=O (stereo partly drawn) [3f, 2-((4-bromophenyl)amino)-2-oxoethyl (2S)-2-(1,3-dioxo-1,3,3a,4,7,7a-hexahydro-2H-isoindol-2-yl)-4-methylpentanoate]	53			
CC(C)C[C@@H](C(=O)OCC(=O)Nc1ccc(Cl)cc1)N1C(=O)C2CC=CCC2C1=O (stereo partly drawn) [3g, 2-((4-chlorophenyl)amino)-2-oxoethyl (2S)-2-(1,3-dioxo-1,3,3a,4,7,7a-hexahydro-2H-isoindol-2-yl)-4-methylpentanoate]	56			
CC(C)C[C@@H](C(=O)OCC(=O)Nc1ccc(O)cc1)N1C(=O)C2CC=CCC2C1=O (stereo partly drawn) [3h, 2-((4-hydroxyphenyl)amino)-2-oxoethyl (2S)-2-(1,3-dioxo-1,3,3a,4,7,7a-hexahydro-2H-isoindol-2-yl)-4-methylpentanoate]	6			
CC(C)C[C@@H](C(=O)OCC(=O)Nc1ccc2ccccc2c1)N1C(=O)C2CC=CCC2C1=O (stereo partly drawn) [3i, 2-(naphthalen-2-ylamino)-2-oxoethyl (2S)-2-(1,3-dioxo-1,3,3a,4,7,7a-hexahydro-2H-isoindol-2-yl)-4-methylpentanoate]	79	2.1 ± 1.3	32.8 ± 4.9	CC50 at 72 h [3]: 45 ± 8 µM; mechanism of inhibition [1]: competitive; CC50 at 72 h [4]: > 100 µM
CC(C)C[C@@H](C(=O)OCC(=O)Nc1ccc(F)c([N+](=O)[O-])c1)N1C(=O)C2CC=CCC2C1=O (stereo partly drawn) [3j, 2-((4-fluoro-3-nitrophenyl)amino)-2-oxoethyl (2S)-2-(1,3-dioxo-1,3,3a,4,7,7a-hexahydro-2H-isoindol-2-yl)-4-methylpentanoate]	56			
CC(C)CC(C(=O)OCC(=O)Nc1ccc([N+](=O)[O-])cc1)N1C(=O)C2CC=CCC2C1=O (centres unmarked) [3l]	67			
COc1ccc(NC(=O)COC(=O)C(CC(C)C)N2C(=O)C3CC=CCC3C2=O)c([N+](=O)[O-])c1 (centres unmarked) [3m]	53			
COc1ccc(NC(=O)COC(=O)[C@H](CC(C)C)N2C(=O)C3CCCCC3C2=O)cc1Cl (stereo partly drawn) [10b, 2-((3-chloro-4-methoxyphenyl)amino)-2-oxoethyl (2S)-2-(1,3-dioxooctahydro-2H-isoindol-2-yl)-4-methylpentanoate]	75	4.2 ± 1.5	> 100	decrease in potency against cruzain relative to 3a [1]: 2 fold
COc1ccc(NC(=O)COC(=O)[C@H](Cc2ccccc2)N2C(=O)C3CC=CCC3C2=O)cc1Cl (stereo partly drawn) [10h, 2-((3-chloro-4-methoxyphenyl)amino)-2-oxoethyl (2S)-2-(1,3-dioxo-1,3,3a,4,7,7a-hexahydro-2H-isoindol-2-yl)-3-phenylpropanoate]	96	1.4 ± 0.8	> 100	activity against cruzain (in words) [1]: active; mechanism of inhibition [1]: competitive; increase in potency against cruzain relative to 3a ([1]; more active than 3a): 2 fold; activity against T. cruzi (in words) [2]: inactive
COc1ccc(NC(=O)COC(=O)C(Cc2ccccc2)N2C(=O)C3CC=CCC3C2=O)cc1Cl (centres unmarked) [10hrac, 2-((3-chloro-4-methoxyphenyl)amino)-2-oxoethyl 2-(1,3-dioxo-1,3,3a,4,7,7a-hexahydro-2H-isoindol-2-yl)-3-phenylpropanoate]		1.16		
COc1ccc(NC(=O)COC(=O)[C@H](CC(C)C)N2CCCC2)cc1Cl [10k, 2-((3-chloro-4-methoxyphenyl)amino)-2-oxoethyl (S)-4-methyl-2-(pyrrolidin-1-yl)pentanoate]	6		> 100	activity against cruzain (in words) [1]: inactive; activity against T. cruzi (in words) [2]: inactive
COc1cccc2c1C(=O)c1c(O)c3c(c(O)c1C2=O)C[C@@](O)(C(=O)CO)C[C@@H]3O[C@H]1C[C@H](N)[C@H](O)[C@H](C)O1 [Doxorubicin, doxorubicin, reference compound]				CC50 at 72 h [3]: 0.4 ± 0.1 µM; CC50 at 72 h [4]: 0.21 ± 0.09 µM
COc1ccc(NC(=O)CNC(=O)C(CC(C)C)N2C(=O)C3CC=CCC3C2=O)cc1Cl (centres unmarked) [compound 5, N-(2-((3-chloro-4-methoxyphenyl)amino)-2-oxoethyl)-2-(1,3-dioxo-1,3,3a,4,7,7a-hexahydro-2H-isoindol-2-yl)-4-methylpentanamide]	38			
